Key:
Format in all cases: in vivo
Details in all cases: scale 0 to 100
[1] = system: spring wheat (Triticum aestivum); test: Test D postemergence
Description: (§1) Seeds of plant species selected from bluegrass (annual bluegrass, Poa annua), blackgrass (Alopecurus myosuroides), canarygrass (Phalaris minor), chickweed (common chickweed, Stellaria media), cutleaf geranium (Geranium dissectum), galium (catchweed bedstraw, Galium aparine), downy bromegrass (Bromus tectorum), field poppy (Papaver rhoeas), field violet (Viola arvensis), green foxtail (Setaria viridis), deadnettle (henbit deadnettle, Lamium amplexicaule), Italian ryegrass (Lolium multiflorum), kochia (Kochia scoparia), lambsquarters (Chenopodium album), oilseed rape (Brassica napus), pigweed (Amaranthus retroflexus), chamomile (scentless chamomile, Matricaria inodora), Russian thistle (Salsola kali), speedwell (bird's-eye speedwell, Veronica persica), spring barley (Hordeum vulgare), spring wheat (Triticum aestivum), wild buckwheat (Polygonum convolvulus), wild mustard (Sinapis arvensis), wild oat (Avenafatua), wild radish (Raphanus raphanistrum), windgrass (Apera spica-venti), winter barley (Hordeum vulgare), and winter wheat (Triticum aestivum) were planted into a silt loam soil and treated preemergence with test chemicals formulated in a non-phytotoxic solvent mixture which included a surfactant.
(§2) At the same time, these species were planted in pots containing Redi-Earth® planting medium (Scotts Company, 14111 Scottslawn Road, Marysville, Ohio 43041) comprising spaghnum peat moss, vermiculite, wetting agent and starter nutrients and treated with postemergence applications of the test chemicals formulated in the same manner. Plants ranged in height from 2 to 18 cm (1- to 4-leaf stage). Treated plants and controls were maintained in a controlled growth environment for 14 to 21 days after which time all species were compared to controls and visually evaluated. Plant response ratings, summarized in Table D, are based on a scale of 0 to 100 where 0 is no effect and 100 is complete control. A dash (-) response means no test result.

kochia (Kochia scoparia) [2] = test: Test D postemergence
Description: as §1, §2

[3] = system: field violet (Viola arvensis); test: Test D postemergence
Description: as §1, §2

[4] = system: speedwell (bird's-eye speedwell, Veronica persica); test: Test D postemergence
Description: as §1, §2

[5] = system: winter barley (Hordeum vulgare); test: Test D postemergence
Description: as §1, §2

[6] = system: chamomile (scentless chamomile, Matricaria inodora); test: Test D postemergence
Description: as §1, §2

[7] = system: wild radish (Raphanus raphanistrum); test: Test D postemergence
Description: as §1, §2

[8] = system: galium (catchweed bedstraw, Galium aparine); test: Test D postemergence
Description: as §1, §2

[9] = system: green foxtail (Setaria viridis); test: Test D postemergence
Description: as §1, §2

[10] = system: deadnettle (henbit deadnettle, Lamium amplexicaule); test: Test D postemergence
Description: as §1, §2

[11] = system: spring barley (Hordeum vulgare); test: Test D postemergence
Description: as §1, §2

[12] = system: wild mustard (Sinapis arvensis); test: Test D postemergence
Description: as §1, §2

[13] = system: winter wheat (Triticum aestivum); test: Test D postemergence
Description: as §1, §2

[14] = system: lambsquarters (Chenopodium album); test: Test D postemergence
Description: as §1, §2

[15] = system: Russian thistle (Salsola kali); test: Test D postemergence
Description: as §1, §2

[16] = system: spring wheat (Triticum aestivum); test: Test D preemergence
In short: (§3)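 Greenhouse herbicide screen. Pre: silt loam, spray at planting. Post: 1–4 leaf, 2–18 cm. Readout: visual % control (0–100) at 14–21 DAT vs controls.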

kochia (Kochia scoparia) [17] = test: Test D preemergence
In short: as §3

[18] = system: bluegrass (annual bluegrass, Poa annua); test: Test D preemergence
In short: as §3

[19] = system: pigweed (Amaranthus retroflexus); test: Test D preemergence
In short: as §3

[20] = system: oilseed rape (Brassica napus); test: Test D preemergence
In short: as §3

For `Fc1cccc(Oc2ncc(C(F)(F)F)cn2)c1Oc1ncc(Cl)cn1` [Compound 42, 5-chloro-2-[2-fluoro-6-[[5-(trifluoromethyl)-2-pyrimidinyl]oxy]phenoxy]pyrimidine], the “Plant response rating, Wheat, Spring” value ([1]; 16 g ai/ha) was 0, the “Plant response rating, Wheat, Spring” value ([1]; 31 g ai/ha) was 5 and the “Plant response rating, Wheat, Spring” value ([1]; 62 g ai/ha) was 5. For the same compound, the “Plant response rating, Wheat, Spring” value ([1]; 125 g ai/ha) was 15, the “Plant response rating, Kochia” value (kochia (Kochia scoparia) [2]; 16 g ai/ha) was 85 and the “Plant response rating, Kochia” value (kochia (Kochia scoparia) [2]; 31 g ai/ha) was 100. The “Plant response rating, Kochia” value (kochia (Kochia scoparia) [2]; 62 g ai/ha) was 100, the “Plant response rating, Kochia” value (kochia (Kochia scoparia) [2]; 125 g ai/ha) was 100 and the “Plant response rating, Field Violet” value ([3]; 16 g ai/ha) was 65. For the same compound, the “Plant response rating, Field Violet” value ([3]; 31 g ai/ha) was 65, the “Plant response rating, Field Violet” value ([3]; 62 g ai/ha) was 90 and the “Plant response rating, Field Violet” value ([3]; 125 g ai/ha) was 95. The “Plant response rating, Speedwell” value ([4]; 16 g ai/ha) was 40, the “Plant response rating, Speedwell” value ([4]; 31 g ai/ha) was 50 and the “Plant response rating, Speedwell” value ([4]; 62 g ai/ha) was 80. The “Plant response rating, Speedwell” value ([4]; 125 g ai/ha) was 80, the “Plant response rating, Barley, Winter” value ([5]; 16 g ai/ha) was 5 and the “Plant response rating, Barley, Winter” value ([5]; 31 g ai/ha) was 5. The “Plant response rating, Barley, Winter” value ([5]; 62 g ai/ha) was 10, the “Plant response rating, Barley, Winter” value ([5]; 125 g ai/ha) was 15 and the “Plant response rating, Chamomile” value ([6]; 16 g ai/ha) was 0. The “Plant response rating, Chamomile” value ([6]; 31 g ai/ha) was 0, the “Plant response rating, Chamomile” value ([6]; 62 g ai/ha) was 5 and the “Plant response rating, Chamomile” value ([6]; 125 g ai/ha) was 15. The “Plant response rating, Radish, Wild” value ([7]; 16 g ai/ha) was 80, the “Plant response rating, Radish, Wild” value ([7]; 31 g ai/ha) was 75 and the “Plant response rating, Radish, Wild” value ([7]; 62 g ai/ha) was 85. The “Plant response rating, Radish, Wild” value ([7]; 125 g ai/ha) was 90, the “Plant response rating, Galium” value ([8]; 16 g ai/ha) was 70 and the “Plant response rating, Galium” value ([8]; 31 g ai/ha) was 85. For the same compound, the “Plant response rating, Galium” value ([8]; 62 g ai/ha) was 90, the “Plant response rating, Galium” value ([8]; 125 g ai/ha) was 100 and the “Plant response rating, Foxtail, Green” value ([9]; 16 g ai/ha) was 10. For the same compound, the “Plant response rating, Foxtail, Green” value ([9]; 31 g ai/ha) was 15, the “Plant response rating, Foxtail, Green” value ([9]; 62 g ai/ha) was 60 and the “Plant response rating, Foxtail, Green” value ([9]; 125 g ai/ha) was 70. For the same compound, the “Plant response rating, Deadnettle” value ([10]; 16 g ai/ha) was 35, the “Plant response rating, Deadnettle” value ([10]; 31 g ai/ha) was 40 and the “Plant response rating, Deadnettle” value ([10]; 62 g ai/ha) was 60. The “Plant response rating, Deadnettle” value ([10]; 125 g ai/ha) was 75, the “Plant response rating, Barley, Spring” value ([11]; 16 g ai/ha) was 10 and the “Plant response rating, Barley, Spring” value ([11]; 31 g ai/ha) was 15. The “Plant response rating, Barley, Spring” value ([11]; 62 g ai/ha) was 20, the “Plant response rating, Barley, Spring” value ([11]; 125 g ai/ha) was 30 and the “Plant response rating, Mustard, Wild” value ([12]; 16 g ai/ha) was 70. The “Plant response rating, Mustard, Wild” value ([12]; 31 g ai/ha) was 70, the “Plant response rating, Mustard, Wild” value ([12]; 62 g ai/ha) was 100 and the “Plant response rating, Mustard, Wild” value ([12]; 125 g ai/ha) was 100. For the same compound, the “Plant response rating, Wheat, Winter” value ([13]; 16 g ai/ha) was 0, the “Plant response rating, Wheat, Winter” value ([13]; 31 g ai/ha) was 5 and the “Plant response rating, Wheat, Winter” value ([13]; 62 g ai/ha) was 10. The “Plant response rating, Wheat, Winter” value ([13]; 125 g ai/ha) was 20, the “Plant response rating, Lambsquarters” value ([14]; 16 g ai/ha) was 70 and the “Plant response rating, Lambsquarters” value ([14]; 31 g ai/ha) was 85. The “Plant response rating, Lambsquarters” value ([14]; 62 g ai/ha) was 90, the “Plant response rating, Lambsquarters” value ([14]; 125 g ai/ha) was 95 and the “Plant response rating, Russian Thistle” value ([15]; 16 g ai/ha) was 10. For the same compound, the “Plant response rating, Russian Thistle” value ([15]; 31 g ai/ha) was 10, the “Plant response rating, Russian Thistle” value ([15]; 62 g ai/ha) was 25 and the “Plant response rating, Russian Thistle” value ([15]; 125 g ai/ha) was 70. For the same compound, the “Plant response rating, Wheat, Spring” value ([16]; 16 g ai/ha) was 0, the “Plant response rating, Wheat, Spring” value ([16]; 31 g ai/ha) was 0 and the “Plant response rating, Wheat, Spring” value ([16]; 62 g ai/ha) was 15. The “Plant response rating, Wheat, Spring” value ([16]; 125 g ai/ha) was 65, the “Plant response rating, Kochia” value (kochia (Kochia scoparia) [17]; 16 g ai/ha) was 35 and the “Plant response rating, Kochia” value (kochia (Kochia scoparia) [17]; 31 g ai/ha) was 65. For the same compound, the “Plant response rating, Kochia” value (kochia (Kochia scoparia) [17]; 62 g ai/ha) was 100, the “Plant response rating, Kochia” value (kochia (Kochia scoparia) [17]; 125 g ai/ha) was 100 and the “Plant response rating, Bluegrass” value ([18]; 16 g ai/ha) was 10. The “Plant response rating, Bluegrass” value ([18]; 31 g ai/ha) was 0, the “Plant response rating, Bluegrass” value ([18]; 62 g ai/ha) was 45 and the “Plant response rating, Bluegrass” value ([18]; 125 g ai/ha) was 90. For the same compound, the “Plant response rating, Pigweed” value ([19]; 16 g ai/ha) was 100, the “Plant response rating, Pigweed” value ([19]; 31 g ai/ha) was 100 and the “Plant response rating, Pigweed” value ([19]; 62 g ai/ha) was 100. The “Plant response rating, Pigweed” value ([19]; 125 g ai/ha) was 100, the “Plant response rating, Oilseed Rape” value ([20]; 16 g ai/ha) was 50 and the “Plant response rating, Oilseed Rape” value ([20]; 31 g ai/ha) was 70. For the same compound, the “Plant response rating, Oilseed Rape” value ([20]; 62 g ai/ha) was 100 and the “Plant response rating, Oilseed Rape” value ([20]; 125 g ai/ha) was 100.

Source: patent US20170190671A1, “BIS(ARYL)CATECHOL DERIVATIVES AS HERBICIDES” (E I DU PONT DE NEMOURS AND COMPANY, priority 2014, published 2017)
